Assay results taken from PMC7822176, “Pursuing the Complexity of Alzheimer’s Disease: Discovery of Fluoren-9-Amines as Selective Butyrylcholinesterase Inhibitors and N-Methyl-D-Aspartate Receptor Antagonists” (Biomolecules, 2020).
Read-outs that look alike come from different tables or passages of the source.

How the values were obtained:
[1] = molecular target: T1, hBChE (Homo sapiens, UniProt P06276); assay: biochemical; format: biochemical; settings: for IC50: mean of at least three experiments, read-out: IC50 ± SEM hBChE
T1 construct: made in house
T1 sequence (P06276 29-602): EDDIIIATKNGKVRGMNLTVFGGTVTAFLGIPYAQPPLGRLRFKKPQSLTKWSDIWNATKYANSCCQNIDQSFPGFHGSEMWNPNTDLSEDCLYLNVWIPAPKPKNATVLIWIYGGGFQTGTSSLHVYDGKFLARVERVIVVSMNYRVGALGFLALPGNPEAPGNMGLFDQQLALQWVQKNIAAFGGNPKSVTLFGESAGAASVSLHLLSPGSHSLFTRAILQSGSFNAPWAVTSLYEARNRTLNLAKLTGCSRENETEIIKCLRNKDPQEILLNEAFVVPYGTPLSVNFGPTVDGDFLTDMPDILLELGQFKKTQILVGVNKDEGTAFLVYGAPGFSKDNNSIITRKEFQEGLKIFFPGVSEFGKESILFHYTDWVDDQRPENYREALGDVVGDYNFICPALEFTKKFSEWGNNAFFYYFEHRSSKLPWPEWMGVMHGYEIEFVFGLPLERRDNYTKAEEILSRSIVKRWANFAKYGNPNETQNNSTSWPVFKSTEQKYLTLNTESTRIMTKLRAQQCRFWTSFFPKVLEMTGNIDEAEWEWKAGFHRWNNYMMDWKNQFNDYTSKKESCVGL
Method: The human recombinant BChE and AChE were prepared at the Department of Toxicology and Military Pharmacy (Faculty of Military Health Sciences, Hradec Kralove, Czech Republic). 5,5′-dithiobis(2-nitrobenzoic acid) (Ellman’s reagent, DTNB), phosphate buffer (PB, pH 7.4), acetylthiocholine (ATC), and butyrylthiocholine (BTC) were purchased from Sigma-Aldrich, Prague, Czech Republic. For measuring purposes, polystyrene Nunc 96-well microplates with a flat bottom shape (Thermo Fisher Scientific, Waltham, MA, USA) were utilized. All the assays were carried out in 0.1-M KH2PO4/K2HPO4 buffer, pH 7.4. Enzyme solutions were prepared at 2.0 units/mL in 2-mL aliquots. […] Tested compounds were preincubated for 5 min. The reaction was started by the immediate addition of 20 µL of the substrate. […] Each concentration was assayed in triplicate. Software GraphPad Prism 5 (San Diego, CA, USA) was used for the statistical data evaluation.

[2] = MTT cell viability assay, CHO-K1; format: cell-based; settings: Chinese hamster, CHO-K1 cells, 24 h exposure, mean of three independent measurements, read-out: IC50 ± SEM CHO-K1 cell viability
Method: (§1) Standard MTT assay (3-(4,5-dimethylthiazol-2-yl)-2,5-diphenyltetrazolium bromide; Sigma Aldrich, Prague, Czech Republic) was used according to the manufacturer’s protocols on the CHO-K1 (Chinese hamster ovary, ECACC, Salisbury, UK) and hCMEC/D3 (Sigma Aldrich, St. Louis, MO, USA). The cells were cultured according to recommended conditions and seeded in a density of 8000 cells per well, as described previously. […] CHO-K1 cells were exposed to serially diluted tested compounds for 24 h. Then, the medium was replaced by a fresh medium containing 0.5 mg/mL of MTT, and the cells were allowed to produce formazan for another approximately 3 h under surveillance. Thereafter, the medium with MTT was removed, and crystals of formazan were dissolved in DMSO (100 µL/well; PENTA s.r.o., Prague, Czech Republic). Cell viability was assessed spectrophotometrically by the amount of formazan produced. The absorbance was measured at 570 nm with a 650-nm reference wavelength on Synergy HT (BioTek, Winooski, VT, USA). The IC50 value (half-maximal inhibitory concentration) was calculated from the control-subtracted triplicates using nonlinear regression (four parameters) by GraphPad Prism 7.03 software (GraphPad Software Inc., San Diego, CA, USA) for the CHO-K1 cell line, and for hCMEC/D3 cells, the cell viability was expressed as the % relative to the untreated control. Final IC50 and SEM (standard error of the mean) values were obtained as a mean of three independent measurements.

[3] = molecular target: T2, GluN1/GluN2B receptors (Homo sapiens, UniProt Q05586+Q13224); assay: cell-based; settings: for inhibition at 10 µM: HEK293, read-out: RI (%) ± SEM GluN1/GluN2B
T2 construct: expressed in transfected cells; host or cells: HEK293
T2 sequence (Q13224 27-1484, other chains not shown): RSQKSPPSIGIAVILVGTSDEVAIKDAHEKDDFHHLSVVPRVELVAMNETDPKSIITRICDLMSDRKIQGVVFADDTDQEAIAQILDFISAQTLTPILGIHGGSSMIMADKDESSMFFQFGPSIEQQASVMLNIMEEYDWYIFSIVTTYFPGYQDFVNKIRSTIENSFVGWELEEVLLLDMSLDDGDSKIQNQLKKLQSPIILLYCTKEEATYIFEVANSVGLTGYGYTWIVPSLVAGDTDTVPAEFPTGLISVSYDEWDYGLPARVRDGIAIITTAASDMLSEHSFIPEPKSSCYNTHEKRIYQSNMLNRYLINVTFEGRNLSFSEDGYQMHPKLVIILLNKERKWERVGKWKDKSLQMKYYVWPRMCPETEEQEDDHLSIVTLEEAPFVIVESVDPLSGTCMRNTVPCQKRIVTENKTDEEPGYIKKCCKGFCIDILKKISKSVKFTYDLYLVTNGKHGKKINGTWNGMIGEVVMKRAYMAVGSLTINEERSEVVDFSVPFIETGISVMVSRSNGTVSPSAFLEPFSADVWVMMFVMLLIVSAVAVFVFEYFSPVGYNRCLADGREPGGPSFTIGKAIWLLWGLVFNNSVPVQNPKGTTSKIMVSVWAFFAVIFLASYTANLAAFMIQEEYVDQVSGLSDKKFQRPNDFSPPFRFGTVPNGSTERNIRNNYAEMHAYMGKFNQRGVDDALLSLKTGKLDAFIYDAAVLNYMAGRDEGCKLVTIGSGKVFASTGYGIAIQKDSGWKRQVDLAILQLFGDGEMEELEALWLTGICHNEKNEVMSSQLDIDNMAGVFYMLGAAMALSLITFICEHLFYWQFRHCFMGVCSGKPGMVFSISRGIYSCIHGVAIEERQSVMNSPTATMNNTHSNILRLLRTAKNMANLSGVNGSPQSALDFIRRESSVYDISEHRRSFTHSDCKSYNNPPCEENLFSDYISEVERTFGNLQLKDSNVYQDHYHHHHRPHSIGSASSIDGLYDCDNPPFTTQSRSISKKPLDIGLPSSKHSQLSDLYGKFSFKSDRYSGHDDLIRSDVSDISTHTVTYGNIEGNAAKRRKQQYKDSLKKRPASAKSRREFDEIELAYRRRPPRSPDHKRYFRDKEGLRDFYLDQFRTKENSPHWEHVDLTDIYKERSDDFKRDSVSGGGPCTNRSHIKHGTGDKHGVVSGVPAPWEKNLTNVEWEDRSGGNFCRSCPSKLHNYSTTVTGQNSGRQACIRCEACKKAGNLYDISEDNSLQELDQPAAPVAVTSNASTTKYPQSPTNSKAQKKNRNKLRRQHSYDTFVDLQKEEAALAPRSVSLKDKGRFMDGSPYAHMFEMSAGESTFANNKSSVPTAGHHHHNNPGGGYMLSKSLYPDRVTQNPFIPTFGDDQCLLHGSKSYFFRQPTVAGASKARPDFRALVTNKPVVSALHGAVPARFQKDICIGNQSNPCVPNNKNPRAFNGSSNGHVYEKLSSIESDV
Method: (§2) The cells grown in a 24-well plate were put in Opti-MEM I media containing a mixture of 0.9 µL of MATra-A Reagent (IBA) and 900 ng of DNA vectors carrying the human versions of the GluN1-1a (GluN1), GluN2A, or GluN2B subunits and green fluorescent protein (GFP; all vectors were added in equal ratio). The cells were placed on a strong magnet plate for 30 min and then trypsinized; resuspended in Opti-MEM I containing 1% FBS, 20-mM MgCl2, and 3-mM kynurenic acid (to inhibit the NMDAR-induced excitotoxicity); and plated on poly-L-lysine-coated glass coverslips. The electrophysiological experiments were executed 24–48 h after transfection.
(§3) Whole-cell patch-clamp recordings were conducted at room temperature on the GFP-positive HEK293 cells using an Axopatch 200B amplifier (Molecular Devices, San Jose, CA, USA); the series resistance compensation was >80% for all cells. […] The WAS02 application system, which can reach the solution exchange time around the recorded cell of 10–20 ms, was used to apply the extracellular solution (ECS).

[4] = molecular target: T3, GluN1/GluN2A receptors (Homo sapiens, UniProt Q05586+Q12879); assay: cell-based; settings: for inhibition at 10 µM: HEK293, read-out: RI (%) ± SEM GluN1/GluN2A
T3 construct: expressed in transfected cells; host or cells: HEK293
T3 sequence (Q12879 23-1464, other chains not shown): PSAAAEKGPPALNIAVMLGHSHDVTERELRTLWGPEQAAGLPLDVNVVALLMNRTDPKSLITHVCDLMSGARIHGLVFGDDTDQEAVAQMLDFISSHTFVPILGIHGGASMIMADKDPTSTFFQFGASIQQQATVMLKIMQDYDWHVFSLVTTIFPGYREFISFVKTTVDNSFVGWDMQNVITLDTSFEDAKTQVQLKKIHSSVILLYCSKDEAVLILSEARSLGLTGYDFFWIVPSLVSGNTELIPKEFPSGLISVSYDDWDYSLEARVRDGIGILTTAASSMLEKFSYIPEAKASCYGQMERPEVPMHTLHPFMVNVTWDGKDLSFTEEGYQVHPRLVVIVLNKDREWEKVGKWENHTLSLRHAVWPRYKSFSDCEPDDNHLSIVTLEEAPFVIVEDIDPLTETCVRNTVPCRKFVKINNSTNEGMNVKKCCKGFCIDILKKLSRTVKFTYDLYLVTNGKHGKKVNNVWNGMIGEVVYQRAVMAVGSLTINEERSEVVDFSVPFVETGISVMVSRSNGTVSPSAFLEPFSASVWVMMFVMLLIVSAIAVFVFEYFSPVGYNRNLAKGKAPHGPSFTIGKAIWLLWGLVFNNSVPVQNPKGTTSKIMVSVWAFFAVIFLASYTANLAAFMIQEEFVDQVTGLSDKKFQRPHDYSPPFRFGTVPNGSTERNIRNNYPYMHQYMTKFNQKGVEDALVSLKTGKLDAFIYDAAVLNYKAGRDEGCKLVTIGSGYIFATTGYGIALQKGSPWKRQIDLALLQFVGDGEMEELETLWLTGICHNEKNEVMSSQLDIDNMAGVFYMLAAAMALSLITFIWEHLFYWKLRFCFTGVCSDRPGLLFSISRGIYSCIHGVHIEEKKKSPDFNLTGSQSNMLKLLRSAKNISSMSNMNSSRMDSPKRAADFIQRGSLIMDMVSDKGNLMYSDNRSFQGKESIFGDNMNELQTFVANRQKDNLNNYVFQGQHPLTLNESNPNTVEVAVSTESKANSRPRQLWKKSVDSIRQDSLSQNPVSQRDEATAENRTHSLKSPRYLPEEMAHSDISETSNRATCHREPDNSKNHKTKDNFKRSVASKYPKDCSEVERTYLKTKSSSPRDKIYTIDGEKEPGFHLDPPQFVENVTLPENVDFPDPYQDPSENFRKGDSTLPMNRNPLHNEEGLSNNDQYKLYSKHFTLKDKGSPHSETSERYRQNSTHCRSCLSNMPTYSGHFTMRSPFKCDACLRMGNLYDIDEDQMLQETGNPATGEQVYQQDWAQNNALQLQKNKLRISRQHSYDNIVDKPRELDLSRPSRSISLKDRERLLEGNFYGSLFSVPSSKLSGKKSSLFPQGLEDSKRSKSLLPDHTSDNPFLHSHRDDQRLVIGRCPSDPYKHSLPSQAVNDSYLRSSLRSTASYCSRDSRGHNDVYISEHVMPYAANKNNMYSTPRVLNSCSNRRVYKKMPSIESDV
Method: as §2, §3

[5] = molecular target: T1, hBChE; assay: Kinetic study of hBChE inhibition; format: biochemical
Method: The kinetic study of hBChE was performed by using the above-mentioned modified Ellman’s method. The values of Vmax and Km of the Michaelis-Menten kinetics, as well as the value of Ki, were calculated by nonlinear regression from the substrate velocity curves. Linear regression was used for calculation of the Cornish-Bowden plots. All calculations were performed using GraphPad Prism software version 6.07 for Windows (San Diego, CA, USA).

[6] = MTT cell viability test, hCMEC/D3; format: cell-based; settings: human, read-out: % viable cells hCMEC/D3
Method: as §1, with “The IC50 value (half-maximal inhibitory concentration) was calculated from the control-subtracted triplicates using nonlinear regression (four parameters) by GraphPad Prism 7.03 software (GraphPad Software Inc., San Diego, CA, USA) for the CHO-K1 cell line, and for hCMEC/D3 cells, the cell viability was expressed as the % relative to the untreated control.” left out

[7] = in vitro; settings: human
Method: (§4) The D3 assay evaluates the ability of compounds to diffuse from the donor compartment through the D3/hCMEC cell membrane into the acceptor compartment. The D3 cells were seeded on a PET membrane (area 1.12 cm^2) with 3-µm pores of the 12-well plates with 12-mm inserts. […] The donor solution (750 µL) was added to the donor compartment (insert), and the same volume of Opti-MEM was added into the acceptor. The concentration of the drug in both compartments was measured by UV-VIS spectrophotometry in 5, 15, 30, and 60 min of incubation in triplicates. The apparent permeability coefficient (Papp) was calculated from the concentration ratios. Tightness of the D3 monolayer was conducted by the fluorescein isothiocyanate (FITC) test after each experiment. […] (1) Papp= dC/dt × Vr/A × C0 • A: area of the well/cell monolayer, • dC/dt: amount in the receiver compartment in given time, • Vr: volume of the receiver compartment, and • C0: the initial concentration of tested compounds.

[8] = tested on: hCMEC/D3 cell monolayer; assay: in vitro; settings: for potential of BBB permeation (in words): Papp correlated to reference drugs
Method: as §4

[9] = molecular target: NMDA receptor; settings: read-out: IC50 inhibition of NMDA receptor responses; at −60 mV; cited from earlier work
[10] = final prediction from Papp correlated to reference drugs
[11] = 40 mV, read-out: IC50 40 mV GluN1/GluN2B
[12] = −60 mV, read-out: IC50 −60 mV GluN1/GluN2B
[13] = 40 mV, read-out: IC50 40 mV GluN1/GluN2A
[14] = −60 mV, read-out: IC50 −60 mV GluN1/GluN2A

With `Cl.c1ccc2c(c1)-c1ccccc1C2NC1CCCCC1` [Compound 3c, N-Cyclohexyl-9H-fluoren-9-amine hydrochloride] the “times less active compared to THA (hBChE inhibition)” value [1] was 20, the IC50 [1] was 0.47 ± 0.01 µM and the IC50 at 24 h [2] was 111 ± 10 µM. For the same compound, the inhibition at 10 µM [3] was 17.2 ± 2.39%, the inhibition at 10 µM [4] was 41 ± 3.56% and the Ki ([5]; nonlinear regression, substrate butyrylthiocholine) was 0.173 ± 0.025 µM. For the same compound, the type of inhibition ([5]; sum-of-squares F-test, Cornish–Bowden plot) was “competitive inhibition”, the viability at 50 µM ([6]; hCMEC/D3 cells) was 93.4% and the viability at 100 µM ([6]; hCMEC/D3 cells) was 82.9%. For the same compound, the Papp [7] was 123 ± 23.3 nm/s, the “potential of BBB permeation (in words)” value [8] was “low potential to passively pass the BBB” and the “CNS (+/−)” value [8, 10] was “CNS −”.

For `Cl.c1ccc2c(c1)-c1ccccc1C2NC1CCC1` [Compound 3e, N-Cyclobutyl-9H-fluoren-9-amine hydrochloride], the IC50 [1] was 2.03 ± 0.08 µM, the IC50 at 24 h [2] was 192 ± 3 µM and the “h 40 mV GluN1/GluN2B (Hill coefficient)” value ([3]; 40 mV) was 1.10 ± 0.08. For the same compound, the IC50 [3, 11] was 156 ± 14.9 µM, the inhibition at 10 µM [3] was 44.8 ± 3.43% and the “h −60 mV GluN1/GluN2B (Hill coefficient)” value ([3]; −60 mV) was 1.17 ± 0.05. The IC50 [3, 12] was 15.3 ± 2.38 µM, the “h 40 mV GluN1/GluN2A (Hill coefficient)” value ([4]; 40 mV) was 1.28 ± 0.12 and the IC50 [4, 13] was 82.6 ± 14.2 µM. For the same compound, the inhibition at 10 µM [4] was 52.3 ± 4.18%, the “h −60 mV GluN1/GluN2A (Hill coefficient)” value ([4]; −60 mV) was 1.07 ± 0.05 and the IC50 [4, 14] was 8.85 ± 1.21 µM. The viability at 50 µM ([6]; hCMEC/D3 cells) was 92.8%, the viability at 100 µM ([6]; hCMEC/D3 cells) was 92.3% and the Papp [7] was 135 ± 15.4 nm/s. The “potential of BBB permeation (in words)” value [8] was “low potential to passively pass the BBB” and the “CNS (+/−)” value [8, 10] was “CNS −”.

With `CCCCNC1c2ccccc2-c2ccccc21.Cl` [Compound 3m, N-Butyl-9H-fluoren-9-amine hydrochloride] the IC50 [1] was 1.02 ± 0.03 µM, the IC50 at 24 h [2] was 140 ± 15 µM and the “h 40 mV GluN1/GluN2B (Hill coefficient)” value ([3]; 40 mV) was 0.97 ± 0.10. The IC50 [3, 11] was 221 ± 12.2 µM, the inhibition at 10 µM [3] was 51.2 ± 3.24% and the “h −60 mV GluN1/GluN2B (Hill coefficient)” value ([3]; −60 mV) was 1.12 ± 0.05. For the same compound, the IC50 [3, 12] was 11.7 ± 1.72 µM, the “h 40 mV GluN1/GluN2A (Hill coefficient)” value ([4]; 40 mV) was 1.23 ± 0.13 and the IC50 [4, 13] was 114 ± 26.6 µM. The inhibition at 10 µM [4] was 36.2 ± 3.73%, the “h −60 mV GluN1/GluN2A (Hill coefficient)” value ([4]; −60 mV) was 1.19 ± 0.14 and the IC50 [4, 14] was 14.2 ± 1.6 µM. It also gave a viability at 50 µM ([6]; hCMEC/D3 cells) of 82.1%, a viability at 100 µM ([6]; hCMEC/D3 cells) of 80.1% and a Papp [7] of 185 ± 23.7 nm/s. For the same compound, the “potential of BBB permeation (in words)” value [8] was “corresponds to those of standard drugs with high CNS permeability” and the “CNS (+/−)” value [8, 10] was “CNS +”.

Compound `CC(C)CNC1c2ccccc2-c2ccccc21.Cl` [Compound 3n, N-(2-methylpropyl)-9H-fluoren-9-amine hydrochloride] has an IC50 at 24 h [2] of 236 ± 24 µM, an inhibition at 10 µM [3] of 49.7 ± 1.72% and an inhibition at 10 µM [4] of 37.9 ± 2.43%. The viability at 50 µM ([6]; hCMEC/D3 cells) was 98.2%, the viability at 100 µM ([6]; hCMEC/D3 cells) was 92.7% and the Papp [7] was 146 ± 18.8 nm/s. The “potential of BBB permeation (in words)” value [8] was “low potential to passively pass the BBB” and the “CNS (+/−)” value [8, 10] was “CNS −”.

In the case of `Nc1c2c(nc3ccccc13)CCCC2` [THA, Tacrine, reference compound], the IC50 [9] is given as 20 µM, the viability at 50 µM [6] is given as 91.1% and the viability at 100 µM [6] is given as 94.5%. The Papp [7] was 223 ± 20.1 nm/s and the “CNS (+/−)” value [8] was “CNS +”.
